Patent US7947727B2, “Compounds” (GlaxoGroupLimited, priority 2006, dated 2011)

system: NFκB activity; assay: Glucocorticoid Mediated Transrepression of NFκB Activity (A549 ELAM promoter alkaline phosphatase reporter); format: cell-based; conditions: Human A549 lung epithelial cells, 3 ng/ml human recombinant TNFα, 16 hours, read-out: pEC50, transrepression of NFκB activity (converted)
Description: Human A549 lung epithelial cells were engineered to contain a secreted placental alkaline phosphatase gene under the control of the distal region of the NFκB dependent ELAM promoter as previously described in Ray, K. P., Farrow, S., Daly, M., Talabot, F. and Searle, N. “Induction of the E-selectin promoter by interleukin 1 and tumour necrosis factor alpha, and inhibition by glucocorticoids” Biochemical Journal (1997) 328: 707-15.
Compounds were solvated and diluted in DMSO, and transferred directly into assay plates such that the final concentration of DMSO was 0.7%. Following the addition of cells (40K per well), plates were incubated for 1 hour prior to the addition of 3 ng/ml human recombinant TNFα. Following continued incubation for 16 hours, alkaline phosphatase activity was determined by measuring the change in optical density at 405 nm with time following the addition of 0.7 volumes of assay buffer (1 mg/ml p-nitrophenylphosphate dissolved in 1M diethanolamine, 0.28M NaCl, 0.5 mM MgCl2). Dose response curves were constructed from which EC50 values were estimated.

EC50 [nM]	Compound
≤ 10	CCN(CC(O)(CNc1cccc2c1cnn2-c1ccccc1)C(F)(F)F)C(=O)c1ccccc1F (single isomer, unassigned) [Example 3A, N-Ethyl-2-fluoro-N-(3,3,3-trifluoro-2-hydroxy-2-{[(1-phenyl-1H-indazol-4-yl)amino]methyl}propyl)benzamide]
≤ 10	CCN(CC(O)(CNc1cccc2c1cnn2-c1ccc(F)cc1)C(F)(F)F)C(=O)c1ccccc1C (single isomer, unassigned) [Example 6A, N-Ethyl-2-methyl-N-[3,3,3-trifluoro-2-({[1-(4-fluorophenyl)-1H-indazol-4-yl]amino}methyl)-2-hydroxypropyl]benzamide]
≤ 10	CCN(CC(O)(CNc1cccc2c1cnn2-c1ccc(F)cc1)C(F)(F)F)C(=O)c1ccccc1F (single isomer, unassigned) [Example 7A, N-Ethyl-2-fluoro-N-[3,3,3-trifluoro-2-({[1-(4-fluorophenyl)-1H-indazol-4-yl]amino}methyl)-2-hydroxypropyl]benzamide]
≤ 10	CCN(CC(O)(CNc1cccc2c1cnn2-c1ccc(F)cc1)C(F)(F)F)C(=O)c1ccccc1F (stereo not shown) [Example 7, N-Ethyl-2-fluoro-N-[3,3,3-trifluoro-2-({[1-(4-fluorophenyl)-1H-indazol-4-yl]amino}methyl)-2-hydroxypropyl]benzamide]
